Data reported in ChEMBL document CHEMBL1136905, “Substituted isoxazole analogs of farnesoid X receptor (FXR) agonist GW4064” (Bioorg Med Chem Lett, 2009).

molecular target: T1, Bile acid receptor (Homo sapiens) (UniProt Q96RI1); experiment: Agonist activity at human FXR assessed as SRC1 peptide interaction with receptor ligand binding domain by FRET assay relative to GW-4064; conditions: not given
T1 sequence (whole entry): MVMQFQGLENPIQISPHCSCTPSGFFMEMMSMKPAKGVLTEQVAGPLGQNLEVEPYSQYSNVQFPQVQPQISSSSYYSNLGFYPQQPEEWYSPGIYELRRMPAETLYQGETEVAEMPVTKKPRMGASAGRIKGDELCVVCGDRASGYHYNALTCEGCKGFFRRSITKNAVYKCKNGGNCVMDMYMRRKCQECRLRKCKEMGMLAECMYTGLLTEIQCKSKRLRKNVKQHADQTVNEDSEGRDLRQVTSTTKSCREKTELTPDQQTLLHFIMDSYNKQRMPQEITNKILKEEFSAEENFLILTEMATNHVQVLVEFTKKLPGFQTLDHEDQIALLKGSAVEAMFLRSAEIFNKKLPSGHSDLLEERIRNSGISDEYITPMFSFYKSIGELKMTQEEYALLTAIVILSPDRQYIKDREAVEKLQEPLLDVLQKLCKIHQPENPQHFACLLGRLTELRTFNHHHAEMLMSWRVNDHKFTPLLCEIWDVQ

%max	SMILES
59%	CC(C)c1onc(CSc2nnnn2C)c1COc1ccc(/C=C/c2cccc(C(=O)O)c2)c(Cl)c1
100%	CC(C)c1onc(COc2c(F)cccc2F)c1COc1ccc(/C=C/c2cccc(C(=O)O)c2)c(Cl)c1
106%	Cc1cccc(Cl)c1OCc1noc(C(C)C)c1COc1ccc(/C=C/c2cccc(C(=O)O)c2)c(Cl)c1
77%	CC(C)c1onc(COC(C)(C)C)c1COc1ccc(/C=C/c2cccc(C(=O)O)c2)c(Cl)c1
100%	CC(C)c1onc(CS(=O)(=O)c2c(Cl)cccc2Cl)c1COc1ccc(/C=C/c2cccc(C(=O)O)c2)c(Cl)c1
83%	CC(C)c1onc(COc2cc(Cl)ccc2Cl)c1COc1ccc(/C=C/c2cccc(C(=O)O)c2)c(Cl)c1

The remaining lines, values behind:

SMILES	%max
CC(C)c1onc(-c2c(Cl)cncc2Cl)c1COc1ccc(/C=C/c2cccc(C(=O)O)c2)c(Cl)c1	97%
CC(C)c1onc(COc2cccc(Cl)c2Cl)c1COc1ccc(/C=C/c2cccc(C(=O)O)c2)c(Cl)c1	82%
CC(C)c1onc(CCc2ccccc2)c1COc1ccc(/C=C/c2cccc(C(=O)O)c2)c(Cl)c1	96%
CC(C)c1onc(COc2c(Cl)cccc2Cl)c1COc1ccc(/C=C/c2cccc(C(=O)O)c2)c(Cl)c1	102%
CC(C)c1onc(COc2ccc(Cl)cc2)c1COc1ccc(/C=C/c2cccc(C(=O)O)c2)c(Cl)c1	58%
CC(C)c1onc(COc2c(F)cccc2Cl)c1COc1ccc(/C=C/c2cccc(C(=O)O)c2)c(Cl)c1	103%
CC(C)c1onc(COc2c(Cl)cc(F)cc2Cl)c1COc1ccc(/C=C/c2cccc(C(=O)O)c2)c(Cl)c1	112%
CC(C)c1onc(Cc2ccccc2)c1COc1ccc(/C=C/c2cccc(C(=O)O)c2)c(Cl)c1	67%
CC(C)c1onc(COc2c(Cl)cc(Cl)cc2Cl)c1COc1ccc(/C=C/c2cccc(C(=O)O)c2)c(Cl)c1	101%
CC(C)c1onc(COc2cccc3ccccc23)c1COc1ccc(/C=C/c2cccc(C(=O)O)c2)c(Cl)c1	79%
CC(C)c1onc(COc2c(F)cc(F)cc2F)c1COc1ccc(/C=C/c2cccc(C(=O)O)c2)c(Cl)c1	106%
CC(C)c1onc(CCc2c(Cl)cccc2Cl)c1COc1ccc(/C=C/c2cccc(C(=O)O)c2)c(Cl)c1	105%
CC(C)c1onc(CNc2c(Cl)cncc2Cl)c1COc1ccc(/C=C/c2cccc(C(=O)O)c2)c(Cl)c1	68%

molecular target: T2, Bile acid receptor (Homo sapiens, UniProt Q96RI1); experiment: Agonist activity at human FXR transfected in african green monkey CV1 cells by luciferase reporter gene transient transfection assay; type: functional, cell-based, CV-1; conditions: not given
T2 sequence (Q96RI1 whole entry): T1 sequence (whole entry)

EC50	SMILES
2100 nM	CC(C)c1onc(CSc2nnnn2C)c1COc1ccc(/C=C/c2cccc(C(=O)O)c2)c(Cl)c1
720 nM	CC(C)c1onc(COc2c(F)cccc2F)c1COc1ccc(/C=C/c2cccc(C(=O)O)c2)c(Cl)c1
150 nM	Cc1cccc(Cl)c1OCc1noc(C(C)C)c1COc1ccc(/C=C/c2cccc(C(=O)O)c2)c(Cl)c1
600 nM	CC(C)c1onc(COC(C)(C)C)c1COc1ccc(/C=C/c2cccc(C(=O)O)c2)c(Cl)c1
390 nM	CC(C)c1onc(CS(=O)(=O)c2c(Cl)cccc2Cl)c1COc1ccc(/C=C/c2cccc(C(=O)O)c2)c(Cl)c1
900 nM	CC(C)c1onc(COc2cc(Cl)ccc2Cl)c1COc1ccc(/C=C/c2cccc(C(=O)O)c2)c(Cl)c1

Continued, molecule first:

SMILES	EC50
CC(C)c1onc(-c2c(Cl)cncc2Cl)c1COc1ccc(/C=C/c2cccc(C(=O)O)c2)c(Cl)c1	52 nM
CC(C)c1onc(COc2cccc(Cl)c2Cl)c1COc1ccc(/C=C/c2cccc(C(=O)O)c2)c(Cl)c1	630 nM
CC(C)c1onc(CCc2ccccc2)c1COc1ccc(/C=C/c2cccc(C(=O)O)c2)c(Cl)c1	93 nM
CC(C)c1onc(COc2c(Cl)cccc2Cl)c1COc1ccc(/C=C/c2cccc(C(=O)O)c2)c(Cl)c1	89 nM
CC(C)c1onc(COc2ccc(Cl)cc2)c1COc1ccc(/C=C/c2cccc(C(=O)O)c2)c(Cl)c1	1300 nM
CC(C)c1onc(COc2c(F)cccc2Cl)c1COc1ccc(/C=C/c2cccc(C(=O)O)c2)c(Cl)c1	290 nM
CC(C)c1onc(Cc2ccccc2)c1COc1ccc(/C=C/c2cccc(C(=O)O)c2)c(Cl)c1	230 nM
CC(C)c1onc(COc2c(Cl)cc(Cl)cc2Cl)c1COc1ccc(/C=C/c2cccc(C(=O)O)c2)c(Cl)c1	200 nM
CC(C)c1onc(COc2cccc3ccccc23)c1COc1ccc(/C=C/c2cccc(C(=O)O)c2)c(Cl)c1	1200 nM
CC(C)c1onc(COc2c(F)cc(F)cc2F)c1COc1ccc(/C=C/c2cccc(C(=O)O)c2)c(Cl)c1	300 nM
CC(C)c1onc(CCc2c(Cl)cccc2Cl)c1COc1ccc(/C=C/c2cccc(C(=O)O)c2)c(Cl)c1	48 nM
CC(C)c1onc(CNc2c(Cl)cncc2Cl)c1COc1ccc(/C=C/c2cccc(C(=O)O)c2)c(Cl)c1	420 nM

molecular target: T2, Bile acid receptor; experiment: Agonist activity at human FXR assessed as SRC1 coactivator peptide recruitment by cell free FRET assay; type: functional; conditions: not given

SMILES	EC50
CC(C)c1onc(COc2c(Cl)cc(F)cc2Cl)c1COc1ccc(/C=C/c2cccc(C(=O)O)c2)c(Cl)c1	540 nM

molecular target: T2, Bile acid receptor; experiment: Agonist activity at human FXR assessed as SRC1 peptide interaction with receptor ligand binding domain by FRET assay; conditions: not given

EC50	SMILES
930 nM	CC(C)c1onc(CSc2nnnn2C)c1COc1ccc(/C=C/c2cccc(C(=O)O)c2)c(Cl)c1
2200 nM	CC(C)c1onc(COc2c(F)cccc2F)c1COc1ccc(/C=C/c2cccc(C(=O)O)c2)c(Cl)c1
48 nM	Cc1cccc(Cl)c1OCc1noc(C(C)C)c1COc1ccc(/C=C/c2cccc(C(=O)O)c2)c(Cl)c1
660 nM	CC(C)c1onc(COC(C)(C)C)c1COc1ccc(/C=C/c2cccc(C(=O)O)c2)c(Cl)c1
150 nM	CC(C)c1onc(CS(=O)(=O)c2c(Cl)cccc2Cl)c1COc1ccc(/C=C/c2cccc(C(=O)O)c2)c(Cl)c1
1000 nM	CC(C)c1onc(COc2cc(Cl)ccc2Cl)c1COc1ccc(/C=C/c2cccc(C(=O)O)c2)c(Cl)c1

The next lines start with the molecule.

SMILES	EC50
CC(C)c1onc(-c2c(Cl)cncc2Cl)c1COc1ccc(/C=C/c2cccc(C(=O)O)c2)c(Cl)c1	150 nM
CC(C)c1onc(COc2cccc(Cl)c2Cl)c1COc1ccc(/C=C/c2cccc(C(=O)O)c2)c(Cl)c1	480 nM
CC(C)c1onc(CCc2ccccc2)c1COc1ccc(/C=C/c2cccc(C(=O)O)c2)c(Cl)c1	320 nM
CC(C)c1onc(COc2c(Cl)cccc2Cl)c1COc1ccc(/C=C/c2cccc(C(=O)O)c2)c(Cl)c1	78 nM
CC(C)c1onc(COc2ccc(Cl)cc2)c1COc1ccc(/C=C/c2cccc(C(=O)O)c2)c(Cl)c1	450 nM
CC(C)c1onc(COc2c(F)cccc2Cl)c1COc1ccc(/C=C/c2cccc(C(=O)O)c2)c(Cl)c1	74 nM
CC(C)c1onc(COc2c(Cl)cc(F)cc2Cl)c1COc1ccc(/C=C/c2cccc(C(=O)O)c2)c(Cl)c1	87 nM
CC(C)c1onc(Cc2ccccc2)c1COc1ccc(/C=C/c2cccc(C(=O)O)c2)c(Cl)c1	550 nM
CC(C)c1onc(COc2c(Cl)cc(Cl)cc2Cl)c1COc1ccc(/C=C/c2cccc(C(=O)O)c2)c(Cl)c1	58 nM
CC(C)c1onc(COc2cccc3ccccc23)c1COc1ccc(/C=C/c2cccc(C(=O)O)c2)c(Cl)c1	960 nM
CC(C)c1onc(COc2c(F)cc(F)cc2F)c1COc1ccc(/C=C/c2cccc(C(=O)O)c2)c(Cl)c1	110 nM
CC(C)c1onc(CCc2c(Cl)cccc2Cl)c1COc1ccc(/C=C/c2cccc(C(=O)O)c2)c(Cl)c1	150 nM
CC(C)c1onc(CNc2c(Cl)cncc2Cl)c1COc1ccc(/C=C/c2cccc(C(=O)O)c2)c(Cl)c1	400 nM

molecular target: T1, Bile acid receptor (Homo sapiens); experiment: Agonist activity at human FXR transfected in african green monkey CV1 cells by luciferase reporter gene transient transfection assay relative to GW-4064; type: functional, cell-based; conditions: CV-1

%max	SMILES
45%	CC(C)c1onc(CSc2nnnn2C)c1COc1ccc(/C=C/c2cccc(C(=O)O)c2)c(Cl)c1
112%	CC(C)c1onc(COc2c(F)cccc2F)c1COc1ccc(/C=C/c2cccc(C(=O)O)c2)c(Cl)c1
111%	Cc1cccc(Cl)c1OCc1noc(C(C)C)c1COc1ccc(/C=C/c2cccc(C(=O)O)c2)c(Cl)c1
132%	CC(C)c1onc(COC(C)(C)C)c1COc1ccc(/C=C/c2cccc(C(=O)O)c2)c(Cl)c1
68%	CC(C)c1onc(CS(=O)(=O)c2c(Cl)cccc2Cl)c1COc1ccc(/C=C/c2cccc(C(=O)O)c2)c(Cl)c1
37%	CC(C)c1onc(COc2cc(Cl)ccc2Cl)c1COc1ccc(/C=C/c2cccc(C(=O)O)c2)c(Cl)c1

Further lines, the molecule ahead of its results:

SMILES	%max
CC(C)c1onc(-c2c(Cl)cncc2Cl)c1COc1ccc(/C=C/c2cccc(C(=O)O)c2)c(Cl)c1	88%
CC(C)c1onc(COc2cccc(Cl)c2Cl)c1COc1ccc(/C=C/c2cccc(C(=O)O)c2)c(Cl)c1	38%
CC(C)c1onc(CCc2ccccc2)c1COc1ccc(/C=C/c2cccc(C(=O)O)c2)c(Cl)c1	110%
CC(C)c1onc(COc2c(Cl)cccc2Cl)c1COc1ccc(/C=C/c2cccc(C(=O)O)c2)c(Cl)c1	89%
CC(C)c1onc(COc2ccc(Cl)cc2)c1COc1ccc(/C=C/c2cccc(C(=O)O)c2)c(Cl)c1	53%
CC(C)c1onc(COc2c(F)cccc2Cl)c1COc1ccc(/C=C/c2cccc(C(=O)O)c2)c(Cl)c1	121%
CC(C)c1onc(COc2c(Cl)cc(F)cc2Cl)c1COc1ccc(/C=C/c2cccc(C(=O)O)c2)c(Cl)c1	56%
CC(C)c1onc(Cc2ccccc2)c1COc1ccc(/C=C/c2cccc(C(=O)O)c2)c(Cl)c1	120%
CC(C)c1onc(COc2c(Cl)cc(Cl)cc2Cl)c1COc1ccc(/C=C/c2cccc(C(=O)O)c2)c(Cl)c1	68%
CC(C)c1onc(COc2cccc3ccccc23)c1COc1ccc(/C=C/c2cccc(C(=O)O)c2)c(Cl)c1	34%
CC(C)c1onc(COc2c(F)cc(F)cc2F)c1COc1ccc(/C=C/c2cccc(C(=O)O)c2)c(Cl)c1	95%
CC(C)c1onc(CCc2c(Cl)cccc2Cl)c1COc1ccc(/C=C/c2cccc(C(=O)O)c2)c(Cl)c1	104%
CC(C)c1onc(CNc2c(Cl)cncc2Cl)c1COc1ccc(/C=C/c2cccc(C(=O)O)c2)c(Cl)c1	31%

test system: not listed separately; experiment: Terminal half life in iv dosed rat; type: ADME, organism-based; conditions: in vivo, read-out: beta t1/2

SMILES	half-life
CC(C)c1onc(-c2c(Cl)cncc2Cl)c1COc1ccc(/C=C/c2cccc(C(=O)O)c2)c(Cl)c1	0.867 h
CC(C)c1onc(COc2c(Cl)cccc2Cl)c1COc1ccc(/C=C/c2cccc(C(=O)O)c2)c(Cl)c1	2.17 h
CC(C)c1onc(COc2c(Cl)cc(F)cc2Cl)c1COc1ccc(/C=C/c2cccc(C(=O)O)c2)c(Cl)c1	2.33 h

test system: not listed separately; experiment: Total clearance in iv dosed rat; type: ADME, organism-based; conditions: in vivo

SMILES	clearance
CC(C)c1onc(-c2c(Cl)cncc2Cl)c1COc1ccc(/C=C/c2cccc(C(=O)O)c2)c(Cl)c1	48 mL/min/kg
CC(C)c1onc(COc2c(Cl)cccc2Cl)c1COc1ccc(/C=C/c2cccc(C(=O)O)c2)c(Cl)c1	20 mL/min/kg
CC(C)c1onc(COc2c(Cl)cc(F)cc2Cl)c1COc1ccc(/C=C/c2cccc(C(=O)O)c2)c(Cl)c1	15 mL/min/kg

test system: not listed separately; experiment: Volume of distribution at steady state in iv dosed rat; type: ADME, organism-based; conditions: in vivo, read-out: Vdss

SMILES	Vd
CC(C)c1onc(-c2c(Cl)cncc2Cl)c1COc1ccc(/C=C/c2cccc(C(=O)O)c2)c(Cl)c1	1.1 L/kg
CC(C)c1onc(COc2c(Cl)cccc2Cl)c1COc1ccc(/C=C/c2cccc(C(=O)O)c2)c(Cl)c1	1.2 L/kg
CC(C)c1onc(COc2c(Cl)cc(F)cc2Cl)c1COc1ccc(/C=C/c2cccc(C(=O)O)c2)c(Cl)c1	1.4 L/kg

test system: not listed separately; experiment: Oral bioavailability in rat; type: ADME, organism-based; conditions: in vivo

SMILES	bioavailability
CC(C)c1onc(-c2c(Cl)cncc2Cl)c1COc1ccc(/C=C/c2cccc(C(=O)O)c2)c(Cl)c1	7.8%
CC(C)c1onc(COc2c(Cl)cccc2Cl)c1COc1ccc(/C=C/c2cccc(C(=O)O)c2)c(Cl)c1	9.2%
CC(C)c1onc(COc2c(Cl)cc(F)cc2Cl)c1COc1ccc(/C=C/c2cccc(C(=O)O)c2)c(Cl)c1	1.9%
